Measurements as given in patent US4299767A, “Benzodiazepine derivatives” (Hoffmann-La Roche Inc., priority 1978, dated 1981).
Read-outs that look alike come from different tables or passages of the source.

Experiments:
[1] = system: aldosterone; assay: aldosterone-antagonistic properties in adrenalectomised rats (urine volume, sodium and potassium excretion); format: in vivo, adrenalectomised female Holtzmann rats; details: for response vs control in vivo at 1 mg/kg / response vs control in vivo at 10 mg/kg / response vs control in vivo at 3 mg/kg / response vs control in vivo at 0.1 mg/kg: Rattus norvegicus, po
Method: If benzodiazepine derivatives of formula I are administered to the animals before the treatment with aldosterone, then there is observed, in comparison with the animals which are treated only with aldosterone (control animals), a pronounced increase of the sodium excretion (i.e. the sodium retention caused by aldosterone is antagonised), whereas the potassium excretion and the urine volume are influenced to a lesser extent.
The standard experiment is carried out as follows:
Female Holtzmann rates (150-180 g) are bilaterally adrenalectomised 70 to 74 hours before the beginning of the experiment. After the operation, the animals receive a customary rat dry feed and 0.9% sodium chloride solution for drinking. 16-17 hours before the beginning of the experiment the feed is removed from the animals, but they can still drink, as before, 0.9% sodium chloride solution ad libitum. At the beginning of the experiment the substance to be tested as an aldosterone-antagonist is administered to the animals by means of a stomach probe. 30 minutes later the animals receive a subcutaneous injection of […] of aldosterone. After a further 90 minutes, the urinary bladders of the animals are emptied by careful suprapublic pressure, whereupon the animals are placed individually in metabolic cages without food and without drink. The urine of the animals is then collected for 3hours, whereupon their urinary bladders are once more emptied. The spontaneously excreted urine and the remaining urine obtained at the conclusion of the experiment by pressing-out the urinary bladders are collected in graduated centrifuge glasses. Sodium and potassium concentrations in the urine are determined with a flame photometer.
(§1) The following Table contains results obtained in the previously described experiment with representative benzodiazepine derivatives of formula I. In this Table there are given for each benzodiazepine derivative in question the dosage administered (in mg/kg p.o.) as well as the percentage variation in the urine volume, the sodium excretion and the potassium excretion in comparison with the control animals (i.e. in comparison with the animals treated only with aldosterone). Moreover, the Table contains data relating to the acute toxicity of the benzodiazepine derivatives investigated (LD 50 in mg/kg in the case of a single oral administration to mice).

[2] = acute toxicity, single oral administration to mice; details: mouse, in vivo, p.o.
Description: as §1

[3] = system: intestinal resorption of cholesterol; assay: inhibition of the intestinal resorption of cholesterol (cholesterol recovery, CHOREC); format: in vivo, normal female Fullinsdorf albino rats; details: rats
Method: The compounds to be tested are administered to groups of 6 normal female Fullinsdorf albino rats (body weight about 70 g) by oral intubation. This is followed immediately by oral intubation of a test meal containing radioactive cholesterol. Consecutively, feces are collected for three days, freeze dried and pulverized. An aliquot is burned for evaluation of fecal radioactivity. Controls excrete about 40-50% of the dietary radioactive cholesterol called cholesterol recovery (CHOREC) and arbitrarily set 100%. Animals treated with a substance inhibiting the intestinal resorption of cholesterol show a higher excretion of radioactive cholesterol in comparison with controls. The cholesterol recovery (CHOREC) of treated animals is expressed in % of controls.
(§2) The following Table contains results obtained with the aforementioned particularly preferred compounds inhibiting the intestinal resorption of cholesterol. For each of these compounds there are given the dose(s) administered (in μMol/kg p.o) as well as the cholesterol recovery (CHOREC), expressed in % of controls. Moreover, the Table contains data relating to the acute toxicity of the compounds investigated (LD 50 in mg/kg in the case of a single oral administration to rats): […]

[4] = acute toxicity, single oral administration to rats; details: rat, in vivo, p.o.
Description: as §2

[5] = read-out: potassium excretion [K+], in %, based on control animals
[6] = read-out: sodium excretion [Na+], in %, based on control animals
[7] = read-out: urine volume, in %, based on control animals
[8] = aldosterone alone, in comparison with untreated animals

Compound | response vs control in vivo at 1 mg/kg [1, 5] [%] | response vs control in vivo at 10 mg/kg [1, 5] [%] | response vs control in vivo at 1 mg/kg [1, 6] [%] | response vs control in vivo at 10 mg/kg [1, 6] [%] | response vs control in vivo at 1 mg/kg [1, 7] [%] | response vs control in vivo at 10 mg/kg [1, 7] [%] | LD50 [2] [mg/kg] | also measured
CC(CO)NC(=O)Nc1ccc2c(c1)C(c1ccccc1F)=NCC(=O)N2C (racemic) [Example 8, rac-1-[5-(o-fluorophenyl)-2,3-dihydro-1-methyl-2-oxo-1H-1,4-benzodiazepin-7-yl]-3-(2-hydroxy-1-methylethyl)urea] | 80 | 129 | 127 | 452 | 73 | 200 | > 5000 | –
CC1N=C(c2ccccc2Cl)c2c(ccc(NC(=O)NCCO)c2Br)N(C)C1=O (racemic) [Example 48, rac-1-[6-bromo-5-(o-chlorophenyl)-2,3-dihydro-1,3-dimethyl-2-oxo-2H-1,4-benzodiazepin-7-yl]-3-(2-hydroxyethyl)urea] | – | – | – | – | – | – | – | cholesterol recovery (CHOREC), in % of controls ([3]; 10 μMol/kg p.o.): 150%; cholesterol recovery (CHOREC), in % of controls ([3]; 30 μMol/kg p.o.): 157%; cholesterol recovery (CHOREC), in % of controls ([3]; 100 μMol/kg p.o.): 168%; cholesterol recovery (CHOREC), in % of controls ([3]; 1000 μMol/kg p.o.): 187%; LD50 [4]: > 5000 mg/kg
CC1N=C(c2ccccc2Cl)c2c(ccc(NC(=O)NCCO)c2Cl)N(C)C1=O (racemic) [Example 49, rac-1-[6-chloro-5-(o-chlorophenyl)-2,3-dihydro-1,3-dimethyl-2-oxo-1H-1,4-benzodiazepin-7-yl]-3-(2-hydroxyethyl)urea] | – | – | – | – | – | – | – | cholesterol recovery (CHOREC), in % of controls ([3]; 1000 μMol/kg p.o.): 188%; LD50 [4]: > 5000 mg/kg
CNC(=O)Nc1ccc2c(c1)C(c1ccccc1F)=NCC(=O)N2C [Example 1, 1-[5-(o-Fluorophenyl)-2,3-dihydro-1-methyl-2-oxo-1H-1,4-benzodiazepin-7-yl]-3-methylurea] | – | – | – | – | – | – | > 5000 | response vs control in vivo at 3 mg/kg [1, 5]: 84%; response vs control in vivo at 3 mg/kg [1, 6]: 182%; response vs control in vivo at 3 mg/kg [1, 7]: 95%
CN1C(=O)CN=C(c2ccccc2F)c2cc(NC(=O)NC(C)(C)C)ccc21 [Example 2, 1-tert.butyl-3-[5-(o-fluorophenyl)-2,3-dihydro-1-methyl-2-oxo-1H-1,4-benzodiazepin-7-yl]urea] | 132 | 70 | 236 | 234 | 194 | 105 | 600 to 1200 | –
CN1C(=O)CN=C(c2ccccc2F)c2cc(NC(=O)NCc3ccccc3)ccc21 [Example 3, 1-benzyl-3-[5-(o-fluorophenyl)-2,3-dihydro-1-methyl-2-oxo-1H-1,4-benzodiazepin-7-yl]urea] | 153 | – | 255 | – | 139 | – | > 5000 | –
CCN(C)C(=O)Nc1ccc2c(c1)C(c1ccccc1F)=NCC(=O)N2C [Example 4, 1-ethyl-3-[5-(o-fluorophenyl)-2,3-dihydro-1-methyl-2-oxo-1H-1,4-benzodiazepin-7-yl]-1-methylurea] | 97 | – | 291 | – | 100 | – | > 5000 | –
CN1C(=O)CN=C(c2ccccc2F)c2cc(NC(=O)N3CC3)ccc21 [Example 5, N-[5-(o-fluorophenyl)-2,3-dihydro-1-methyl-2-oxo-1H-1,4-benzodiazepin-7-yl]-1-aziridinecarboxamide] | 146 | 108 | 294 | 237 | 192 | 129 | > 5000 | –
CN1C(=O)CN=C(c2ccccc2F)c2cc(NC(=O)N3CCCC3)ccc21 [Example 6, N-[5-(o-fluorophenyl)-2,3-dihydro-1-methyl-2-oxo-1H-1,4-benzodiazepin-7-yl]-1-pyrrolidinecarboxamide] | 112 | – | 308 | – | 184 | – | > 5000 | –
CN1C(=O)CN=C(c2ccccc2F)c2cc(NC(=O)NCCO)ccc21 [Example 7, 1-[5-(o-fluorophenyl)-2,3-dihydro-1-methyl-2-oxo-1H-1,4-benzodiazepin-7-yl]-3-(2-hydroxyethyl)urea] | – | – | – | – | – | – | > 5000 | response vs control in vivo at 0.1 mg/kg [1, 5]: 121%; response vs control in vivo at 0.1 mg/kg [1, 6]: 247%; response vs control in vivo at 0.1 mg/kg [1, 7]: 85%
CNC(=O)Nc1ccc2c(c1Cl)C(c1ccccc1F)=NCC(=O)N2C [Example 9, 1-[6-chloro-5-(o-fluorophenyl)-2,3-dihydro-1-methyl-2-oxo-1H-1,4-benzodiazepin-7-yl]-3-methylurea] | 91 | – | 330 | – | 178 | – | 1250 to 2500 | –
CCCCNC(=O)Nc1ccc2c(c1Cl)C(c1ccccc1F)=NCC(=O)N2C [Example 10, 1-butyl-3-[6-chloro-5-(o-fluorophenyl)-2,3-dihydro-1-methyl-2-oxo-1H-1,4-benzodiazepin-7-yl]urea] | 104 | – | 380 | – | 175 | – | > 5000 | –
CCN(CC)C(=O)Nc1ccc2c(c1Cl)C(c1ccccc1F)=NCC(=O)N2C [Example 11, 3-[6-chloro-5-(o-fluorophenyl)-2,3-dihydro-1-methyl-2-oxo-1H-1,4-benzodiazepin-7-yl]-1,1-diethylurea] | – | 110 | – | 236 | – | 124 | > 5000 | –
CCN(C)C(=O)Nc1ccc2c(c1Cl)C(c1ccccc1F)=NCC(=O)N2C [Example 12, 3-[6-chloro-5-(o-fluorophenyl)-2,3-dihydro-1-methyl-2-oxo-1H-1,4-benzodiazepin-7-yl]-1-ethyl-1-methylurea] | 118 | – | 278 | – | 136 | – | 2500 to 5000 | –
CN1C(=O)CN=C(c2ccccc2F)c2c1ccc(NC(=O)NCCO)c2Cl [Example 13, 1-[6-chloro-5-(o-fluorophenyl)-2,3-dihydro-1-methyl-2-oxo-1H-1,4-benzodiazepin-7-yl]-3-(2-hydroxyethyl)urea] | 110 | – | 242 | – | 140 | – | > 5000 | –
CN(C)C(=O)Nc1ccc2c(c1)C(c1ccccc1F)=NCC(=O)N2C [Example 32, 3-[5-(o-fluorophenyl)-2,3-dihydro-1-methyl-2-oxo-1H-1,4-benzodiazepin-7-yl]-1,1-dimethylurea] | – | 91 | – | 190 | – | 102 | > 5000 | –
COc1ccc(NC(=O)Nc2ccc3c(c2)C(c2ccccc2F)=NCC(=O)N3C)cc1 [Example 33, 1-[5-(o-fluorophenyl)-2,3-dihydro-1-methyl-2-oxo-1H-1,4-benzodiazepin-7-yl]-3-(p-methoxyphenyl)urea] | – | 145 | – | 240 | – | 117 | > 5000 | –
CCNC(=O)Nc1ccc2c(c1Cl)C(c1ccccc1F)=NCC(=O)N2C [Example 34, 1-[6-chloro-5-(o-fluorophenyl)-2,3-dihydro-1-methyl-2-oxo-1H-1,4-benzodiazepin-7-yl]-3-ethylurea] | – | 149 | – | 271 | – | 156 | 2500 to 5000 | –
C[C@]12CCC(=O)C=C1CC[C@@H]1[C@@H]2[C@@H](O)C[C@]2(C=O)[C@@H](C(=O)CO)CC[C@@H]12 [aldosterone, reference compound] | – | – | – | – | – | – | – | excreted urine volume [1, 8]: reduction of the excreted urine volume; potassium excretion [1, 8]: increased potassium excretion; sodium excretion [1, 8]: pronounced reduction of the sodium excretion
